Measurements from US12037345B2, “Heterobicyclic compounds for inhibiting the activity of SHP2” (TAIHO PHARMACEUTICAL CO., LTD., priority 2018, dated 2024).
Like-named read-outs stand apart in the source and are kept apart here.

What was measured:
SHP2 = SHP2 (Homo sapiens (Human), UniProt Q06124); assay: SHP2 Biochemical Assay (DiFMUP conversion, pIRS1-activated)
Description: SHP2 activity was monitored by measuring the conversion of the surrogate substrate 6,8-difluoromethylumbelliferyl phosphate (DiFMUP) to the fluorescent product, 6,8-difluoromethylumbelliferone (DiFMU).
SHP2 was pre-incubated with test compounds and the activating peptide pIRS1 (H2N-LN(pY)IDLDLV-(PEG)8-LST(pY)ASINFQK-amide) for 30 min, prior to addition of the 6,8-difluoromethylumbelliferyl phosphate (DiFMUP), (Thermo Fisher D6567). Final assay concentrations were 10 pM SHP2, […] pIRS1 peptide, 50 μM DiFMUP, 25 mM Bis-Tris propane, pH 7.0, 150 mM NaCl, 0.05% (v/v) Tween-20, 0.5 mM TCEP and 5% (v/v) DMSO. Rates of reaction were then measured over 30 min by monitoring fluorescence on a BMG Pherastar reader at excitation 360 nm/emission 450 nm. IC50 values were calculated in singlicate from the normalized dose-response plots using four parameter logistic curve fit. The Experiment for each compound was carried out in one time or multiple times, and the IC50 values were shown as a single value (for a compound measured in a single experiment) or an average value (for a compound measured in multiple experiments).

[1] = test system: pERK (phospho-p44/42 ERK) in HCC827 cells; assay: Cellular pERK Inhibition Assay, Method A (In-Cell Western); assay type: cell-based; details: Homo sapiens
Description: Cellular pERK Inhibition Assay
pERK levels were determined using the In-Cell Western assay. HCC827 cells (ATCC, Manassas, USA) were seeded into 384-well plates at a density of 1×10^4 cells/well in RPMI1640 medium supplemented with 10% FBS and incubated 24h. Compounds were diluted first in DMSO and then into serum-free medium, before being added to cells in quadruplicate to give a final concentration of 0.2% DMSO. Plates were incubated at 37° C. for the indicated time in a humidified atmosphere of 5% CO2 in air.
Following compound treatment, cells were fixed with formalin neutral buffer solution for 20 minutes at room temperature. Plates were washed three times with 0.1% Triton-X in PBS and cells were blocked for 1 hour with Odyssey blocking buffer (LI-COR, #927-40000). After shaking out blocking buffer, cells were incubated with phospho-p44/42 ERK antibody (Cell Signalling Technology, #4370, 1:200) diluted in Odyssey blocking buffer at 4° C. overnight. Plates were washed again and cells were incubated for 1 hour with Goat anti-Rabbit […] (LI-COR, #926-32211, 1:800) diluted in Odyssey blocking buffer. After washing and removing wash solution completely using a centrifuge machine, cells were scanned on the Odyssey (LI-COR), following the manufacturer's instructions. The average signal from blank wells (no cells added) was subtracted from the signals from each sample well. Levels of pERK were then expressed as percent of control, using DMSO treated samples as control. The relative IC50 values were calculated in quadruplicate from the normalized dose-response plots using four parameter logistic curve fit. The Experiment for each compound was carried out in one time or multiple times, and the IC50 values were shown as a single value (for a compound measured in a single experiment) or an average value (for a compound measured in multiple experiments).

[2] = Table 19, head prints unit as "-M"
[3] = Table 19, head prints unit as "-M", read-out: pERK (IC50) Method A
[4] = Table 20, read-out: pERK (IC50, μM) Method A

Sequence of SHP2 (Q06124 whole entry): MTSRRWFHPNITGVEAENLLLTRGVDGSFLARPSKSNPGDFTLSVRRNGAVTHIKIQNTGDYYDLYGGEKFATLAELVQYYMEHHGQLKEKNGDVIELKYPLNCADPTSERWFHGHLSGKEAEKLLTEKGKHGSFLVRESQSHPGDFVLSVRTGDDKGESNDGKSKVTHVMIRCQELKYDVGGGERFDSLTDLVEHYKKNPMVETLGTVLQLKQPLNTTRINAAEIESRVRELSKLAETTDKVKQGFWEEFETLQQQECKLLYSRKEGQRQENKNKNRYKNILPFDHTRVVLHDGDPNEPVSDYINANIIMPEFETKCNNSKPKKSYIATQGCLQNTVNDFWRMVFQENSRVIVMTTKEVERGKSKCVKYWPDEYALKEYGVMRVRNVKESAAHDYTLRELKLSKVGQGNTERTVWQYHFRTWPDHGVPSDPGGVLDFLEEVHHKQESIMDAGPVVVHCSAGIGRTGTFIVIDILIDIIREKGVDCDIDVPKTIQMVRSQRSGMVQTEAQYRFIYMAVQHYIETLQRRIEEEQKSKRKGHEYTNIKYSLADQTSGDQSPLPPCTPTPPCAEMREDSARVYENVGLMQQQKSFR

Work on Cn1cc2c(Cl)c(-c3c[nH]c4nc(N5[C@@H]6CC[C@H]5[C@H](F)[C@H](N)C6)n(C)c(=O)c34)ccc2n1 (racemic) [Example 26, rac-2-((1S,2R,3R,5R)-3-amino-2-fluoro-8-azabicyclo[3.2.1]octan-8-yl)-5-(4-chloro-2-methyl-2H-indazol-5-yl)-3-methyl-3,7-dihydro-4H-pyrrolo[2,3-d]pyrimidin-4-one] yielded an IC50 (SHP2; [2]) of 11 nM and an IC50 [1, 3] of 0.088 µM.

For CCn1cc2c(Cl)c(-c3n[nH]c4nc(N5C[C@@H]6CC[C@H]5[C@H]6N)n(C)c(=O)c34)ccc2n1 (racemic) [Example 125, rac-6-((1S,4S,7S)-7-amino-2-azabicyclo[2.2.1]heptan-2-yl)-3-(4-chloro-2-ethyl-2H-indazol-5-yl)-5-methyl-1,5-dihydro-4H-pyrazolo[3,4-d]pyrimidin-4-one], the IC50 (SHP2; [2]) was 17 nM and the IC50 [1, 3] was 0.26 µM.

For Cn1nc2ccc(-c3n[nH]c4nc(N5C[C@@H]6CC[C@H]5[C@H]6N)n(C)c(=O)c34)c(Cl)c2c1Cl (racemic) [Example 126, rac-6-((1S,4S,7S)-7-amino-2-azabicyclo[2.2.1]heptan-2-yl)-3-(3,4-dichloro-2-methyl-2H-indazol-5-yl)-5-methyl-1,5-dihydro-4H-pyrazolo[3,4-d]pyrimidin-4-one], the IC50 (SHP2; [2]) was 13 nM and the IC50 [1, 3] was 0.084 µM.

Cn1c(N2C[C@@H]3CC[C@H]2[C@H]3N)nc2[nH]nc(-c3ccc4ncsc4c3Cl)c2c1=O (racemic) [Example 134, rac-((1S,4S,7S)-7-amino-2-azabicyclo[2.2.1]heptan-2-yl)-3-(7-chlorobenzo[d]thiazol-6-yl)-5-methyl-1,5-dihydro-4H-pyrazolo[3,4-d]pyrimidin-4-one] was tested, and the IC50 (SHP2; [2]) was 4 nM and the IC50 [1, 3] was 0.083 µM.

With CN[C@H]1[C@H]2CC[C@@H]1N(c1nc3[nH]cc(-c4ccc5nn(C)cc5c4Cl)c3c(=O)n1C)C2 (racemic) [Example 135, rac-5-(4-chloro-2-methyl-2H-indazol-5-yl)-3-methyl-2-((1S,4S,7S)-7-(methylamino)-2-azabicyclo[2.2.1]heptan-2-yl)-3,7-dihydro-4H-pyrrolo[2,3-d]pyrimidin-4-one] the IC50 (SHP2; [2]) was 48 nM and the IC50 [1, 3] was 0.95 µM.

Cn1cc2c(Cl)c(-c3c[nH]c4nc(N5[C@H]6CC[C@@H]5[C@@H](N)C6)n(C)c(=O)c34)ccc2n1 (racemic) [Example 164, 2-(rac-(1R,2S,4S)-2-amino-7-azabicyclo[2.2.1]heptan-7-yl)-5-(4-chloro-2-methyl-2H-indazol-5-yl)-3-methyl-3,7-dihydro-4H-pyrrolo[2,3-d]pyrimidin-4-one] showed an IC50 (SHP2; Table 20) of 170 nM and an IC50 [1, 4] of 6.3 µM.

Work on Cn1nc2ccc(-c3c[nH]c4nc(N5[C@H]6CC[C@@H]5[C@](C)(N)C6)n(C)c(=O)c34)c(Cl)c2c1Cl (racemic) [Example 173, rac-2-((1R,2R,4S)-2-amino-2-methyl-7-azabicyclo[2.2.1]heptan-7-yl)-5-(3,4-dichloro-2-methyl-2H-indazol-5-yl)-3-methyl-3,7-dihydro-4H-pyrrolo[2,3-d]pyrimidin-4-one] yielded an IC50 (SHP2; Table 20) of 2.5 nM and an IC50 [1, 4] of 0.14 µM.

With Cn1nc2ccc(-c3n[nH]c4nc(N5[C@H]6CC[C@@H]5[C@](C)(N)C6)n(C)c(=O)c34)c(Cl)c2c1Cl (racemic) [Example 175, rac-6-((1R,2R,4S)-2-amino-2-methyl-7-azabicyclo[2.2.1]heptan-7-yl)-3-(3,4-dichloro-2-methyl-2H-indazol-5-yl)-5-methyl-1,5-dihydro-4H-pyrazolo[3,4-d]pyrimidin-4-one] the IC50 (SHP2; Table 20) was 12 nM and the IC50 [1, 4] was 0.22 µM.

In the case of Cn1cc2c(Cl)c(-c3c[nH]c4nc(N5C[C@H]6CC[C@@H]5[C@@H]6N)n(C)c(=O)c34)ccc2n1 (stereo in doubt) [Example 157, rel-2-((1R,4R,7R)-7-Amino-2-azabicyclo[2.2.1]heptan-2-yl)-5-(4-chloro-2-methyl-2H-indazol-5-yl)-3-methyl-3,7-dihydro-4H-pyrrolo[2,3-d]pyrimidin-4-one], the IC50 (SHP2; [2]) is reported as 3.7 nM and the IC50 [1, 3] is reported as 0.022 µM.

In the case of Cn1cc2c(Cl)c(-c3c[nH]c4nc(N5C6CCC5CNC6)n(C)c(=O)c34)ccc2n1 [Example 1, 2-(3,8-diazabicyclo[3.2.1]octan-8-yl)-5-(4-chloro-2-methyl-2H-indazol-5-yl)-3-methyl-3,7-dihydro-4H-pyrrolo[2,3-d]pyrimidin-4-one], the IC50 (SHP2; [2]) is reported as 14 nM and the IC50 [1, 3] is reported as 0.14 µM.

For CCn1cc2c(Cl)c(-c3c[nH]c4nc(N5CCC(C)(CN)CC5)n(C)c(=O)c34)ccc2n1 [Example 2, 2-(4-(aminomethyl)-4-methylpiperidin-1-yl)-5-(4-chloro-2-ethyl-2H-indazol-5-yl)-3-methyl-3,7-dihydro-4H-pyrrolo[2,3-d]pyrimidin-4-one], the IC50 (SHP2; [2]) was 14 nM and the IC50 [1, 3] was 0.13 µM.

Compound CCn1cc2c(Cl)c(-c3c[nH]c4nc(N5CCC(C)(N)CC5)n(C)c(=O)c34)ccc2n1 [Example 3, 2-(4-amino-4-methylpiperidin-1-yl)-5-(4-chloro-2-ethyl-2H-indazol-5-yl)-3-methyl-3,7-dihydro-4H-pyrrolo[2,3-d]pyrimidin-4-one] has an IC50 (SHP2; [2]) of 15 nM and an IC50 [1, 3] of 0.21 µM.

For CCn1cc2c(Cl)c(-c3c[nH]c4nc(N5[C@@H]6CC[C@H]5C[C@H](N)C6)n(C)c(=O)c34)ccc2n1 [Example 4, 2-(exo-3-amino-8-azabicyclo[3.2.1]octan-8-yl)-5-(4-chloro-2-ethyl-2H-indazol-5-yl)-3-methyl-3,7-dihydro-4H-pyrrolo[2,3-d]pyrimidin-4-one], the IC50 (SHP2; [2]) was 7.5 nM and the IC50 [1, 3] was 0.12 µM.

With CCn1cc2c(Cl)c(-c3c[nH]c4nc(N5[C@@H]6CC[C@H]5C[C@@H](N)C6)n(C)c(=O)c34)ccc2n1 [Example 5, 2-(endo-3-amino-8-azabicyclo[3.2.1]octan-8-yl)-5-(4-chloro-2-ethyl-2H-indazol-5-yl)-3-methyl-3,7-dihydro-4H-pyrrolo[2,3-d]pyrimidin-4-one] the IC50 (SHP2; [2]) was 7.5 nM and the IC50 [1, 3] was 0.16 µM.

CCc1nc2ccc(-c3c[nH]c4nc(N5[C@@H]6CC[C@H]5C[C@@H](N)C6)n(C)c(=O)c34)c(Cl)c2s1 [Example 6, 2-(endo-3-amino-8-azabicyclo[3.2.1]octan-8-yl)-5-(7-chloro-2-ethylbenzo[d]thiazol-6-yl)-3-methyl-3,7-dihydro-4H-pyrrolo[2,3-d]pyrimidin-4-one] was tested, and the IC50 (SHP2; [2]) was 6.5 nM and the IC50 [1, 3] was 0.58 µM.

Work on Cc1nc2ccc(-c3c[nH]c4nc(N5[C@@H]6CC[C@H]5C[C@@H](N)C6)n(C)c(=O)c34)c(Cl)c2s1 [Example 7, 2-(endo-3-amino-8-azabicyclo[3.2.1]octan-8-yl)-5-(7-chloro-2-methylbenzo[d]thiazol-6-yl)-3-methyl-3,7-dihydro-4H-pyrrolo[2,3-d]pyrimidin-4-one] yielded an IC50 (SHP2; [2]) of 9 nM and an IC50 [1, 3] of 0.17 µM.

In the case of Cn1nc2ccc(-c3n[nH]c4nc(N5C[C@H]6CC[C@@H]5[C@@H]6N)n(C)c(=O)c34)c(Cl)c2c1Cl [Example 171, 6-((1R,4R,7R)-7-amino-2-azabicyclo[2.2.1]heptan-2-yl)-3-(3,4-dichloro-2-methyl-2H-indazol-5-yl)-5-methyl-1,5-dihydro-4H-pyrazolo[3,4-d]pyrimidin-4-one], the IC50 [1, 4] is reported as 0.02 µM.

Cn1nc2ccc(-c3c[nH]c4nc(N5C[C@H]6CC[C@@H]5[C@@H]6N)n(C)c(=O)c34)c(Cl)c2c1Cl [Example 172, 2-((1R,4R,7R)-7-amino-2-azabicyclo[2.2.1]heptan-2-yl)-5-(3,4-dichloro-2-methyl-2H-indazol-5-yl)-3-methyl-3,7-dihydro-4H-pyrrolo[2,3-d]pyrimidin-4-one] was tested, and the IC50 [1, 4] was 0.016 µM.
